Values after ≈ are worked out from the molar mass of the structure shown.
Legend:
[1] = test system: pentylentetrazole (PTZ)-induced convulsion; assay: Anti-convulsant effect, pentylentetrazole (PTZ) test; format: in vivo; settings: 10 mg/kg intraperitoneally, PTZ 80 mg/kg subcutaneously; for mortality rate / Induction percentage of convulsion: (animals/total); for mortality rate: negative control 70(17/23); for Induction percentage of convulsion: negative control 100(23/23); for Initiation time of convulsion: negative control 5.0 ± 0.7; for Duration of convulsion: negative control 46.7 ± 3.3
In short: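 Compound was given intraperitoneally at 10 mg/kg before PTZ challenge. The read-outs were time to convulsion onset, time until convulsions fully disappeared, and mortality.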

[2] = test system: superoxide dismutase (SOD); assay: Increase of superoxide dismutase (SOD) activity in mouse brain cells; format: cell-based; settings: 100 μg/ml
Description: (§1) ROS inhibitory effect of compounds was represented to the dose suppressing 50% of production of reactive oxygen compared to control. […] The activity of superoxide dismutase (SOD) was measured by using a kit acquired in Sigma.

[3] = test system: mixed culture of nerve cells-glial cells; assay: Protecting effect on NMDA-induced nerve cell death (LDH release); format: cell-based, ICR mouse; settings: 100 μM NMDA, LDH release after 24 hours
Description: Isolation and culture of nerve cells were performed by Choi's method (Choi, D. W. 1985, Neurosci. Lett., 58: 293-297). That is, the cortex was isolated in fetus ICR mouse that was 14 days pregnant, and then single cells were obtained from the tissue using pipette. The cells were aliquoted into 2×10^5/well density in a 24-well plate (Falcon) in which glial cells of cerebral cortex had been cultured in an incubator maintained at 37° C. with 5% CO2 for over 3 weeks. The culture medium was supplemented with MEM (minimum essential medium, Sigma), 2 mM glutamine, 21 mM glucose, 26.5 mM bicarbonate, 10% fetal bovine serum (FBS). In 3-5 days after aliquot, 10 μM Ara-C (cytosine arabinoside) was treated to suppress proliferation of neuroglia. And it was treated with 100 μM NMDA and 1 μg/mL or 2 μg/mL of each sample (compound) to induce the death of nerve cells due to excitable toxicity for 20 minutes, in 12-15 days after aliquot. Because of nerve cell death, lactate dehydrogenase (LDH) accumulated in proportion to the number of dead cells. In 24 hours after drug treatment, the amount of dehydrogenase (LDH) released to outside of cells was measured by using an […] measurement kit (CytoTox 96, Promega). After the reaction was completed, the change of absorbance depending on the amount of LDH was measured by using a microplate spectrophotometer.

mouse brain cells = assay: Inhibitory effect on ROS production in brain cells (DCF-DA, NMDA-induced); format: cell-based; settings: dose suppressing 50% of production of reactive oxygen compared to control, mouse brain cells; for IC50: 24 h, read-out: ROS inhibitory effect ID50
Description: Oxidative stress was measured to test inhibitory effects on the production of reactive oxygen species (ROS) by using DCF-DA, which is a fluorescent probe. Brain cells were obtained from brain cortex of mouse to prepare cell solution with 2×10^6 cells/ml. Each brain cell was treated with 11 μM of DCF-DA followed by reaction in 37° C., 5% CO2 incubator for an hour. After washing twice, Compound 3 was treated with a concentration of 125 μg/ml and 250 μg/ml. At the same time, 300 μM of NMDA was treated and it was incubated in 37° C., 5% CO2 incubator for 24 hours.
as §1

thoracic aorta of rats = assay: Relaxing effect on thoracic aorta contracted by phenylephrine (organ bath); design: species or system rats of SD species; settings: Rattus norvegicus; 67 μg/mL; phenylephrine 0.5 μM; mean n = 3; read-out: Relaxation percentage
Description: After male rats of SD species (250-300 g) were anesthetized by inhalation of ether, their thoracic aortas were extracted and put into a Krebs buffer (mM; NaCl 118, NaHCO3 27.3, KCl 4.8, MgSO4 1.2, KH2PO4 1.0, CaCl2 1.25, glucose 11.1). 2 mm of aortic ring was made under dissecting microscope and cultured in an organ bath to measure the tension of blood vessels. The organ bath was filled with Krebs buffer and saturated with 95% O2, 5% CO2 to maintain dissolved oxygen and physiological pH. Changing of tension was measured by a tension meter (Hugo-sachs, model K30) and recorded by physiological recorder (Coulbourn polygraph). The length of the blood vessels was increased step by step to make 1.0 g of basal tension for 90 minutes. The equilibrated blood vessel was contracted by phenylephrine (0.5 μM). When the contraction furrow reached equilibrium, compounds were added, followed by observation of relaxation response.

Row | SMILES | mortality rate [1] | Induction percentage of convulsion [1] | Initiation time of convulsion [1] [min] | Duration of convulsion [1] [min] | Increase of SOD activity, compared to control [2] | Inhibitory effect of cell death by NMDA-induced excitable neurotoxicity ([3]; 1 μg/ml compound) [%] | Inhibitory effect of cell death by NMDA-induced excitable neurotoxicity ([3]; 2 μg/ml compound) [%] | IC50 (mouse brain cells) [µg/mL] | inhibition at 67 µg/mL (thoracic aorta of rats) [%] | ROS inhibitory effect ID50 (mouse brain cells) [µg/mL]
1 | CC(=O)N(CCCCn1c(=O)[nH]c2ccccc2c1=O)CCCn1c(=O)[nH]c2ccccc2c1=O [Compound 22, N-[4-(2,4-dioxo-1,4-dihydro-2H-quinazolin-3-yl)butyl]-N-[3-(2,4-dioxo-1,4-dihydro-2H-quinazolin-3-yl)propyl]acetamide] | 0(0/6) % | 83(5/6) % | 15.2 ± 9.0 | 7.0 ± 3.2 | 3.7 ± 0.8 | 17.0 | 14.0 | 172 ± 23.6 (≈ 361 µM) |  | 
2 | Cn1c(=O)n(CCCNCCCCNCCCn2c(=O)c3ccccc3n(C)c2=O)c(=O)c2ccccc21 [Compound 27, 1-methyl-3-(3-{4-[3-(1-methyl-2,4-dioxo-1,4-dihydro-2H-quinazolin-3-yl)propylamino]butylamino}propyl)-1H-quinazoline-2,4-dione] | 50(3/6) % | 100(6/6) % | 8.4 ± 2.6 | 35.8 ± 9.8 | 2.4 ± 7.8 | 33.7 | 36.0 | 21.9 ± 16.1 (≈ 42.1 µM) |  | 
3 | CCCCCCn1c(=O)n(CCCN(CCCCN(CCCn2c(=O)c3ccccc3n(CCCCCC)c2=O)C(=O)OC(C)(C)C)C(=O)OC(C)(C)C)c(=O)c2ccccc21 [Compound 32, (4-{tert-butoxycarbonyl-[3-(1-hexyl-2,4-dioxo-1,4-dihydro-2H-quinazolin-3-yl)propyl]amino}butyl)-[3-(1-hexyl-2,4-dioxo-1,4-dihydro-2H-quinazolin-3-yl)propyl]carbamic acid tert-butyl ester] | 50(3/6) % | 100(5/6) % | 11.3 ± 4.5 | 29.8 ± 12.0 | 0.3 ± 7.1 | 32.0 | 29.8 | 14.4 ± 7.6 (≈ 16.7 µM) |  | 
4 | O=C1c2ccccc2C(=O)N1CCCNCCCCNCCCn1c(=O)[nH]c2ccccc2c1=O [Compound 28, 3-(3-{4-[3-(1,3-dioxo-1,3-dihydro-isoindole-2-yl)propylamino]butylamino}propyl)-1H-quinazoline-2,4-dione] | 0(0/6) % | 100(6/6) % | 4.8 ± 2.2 | 26.9 ± 6.5 |  | 23.1 | 22.4 | 30.9 ± 13.7 (≈ 64.7 µM) | 8.3 | 
5 | CCOC(=O)N(CCCCN(CCCn1c(=O)[nH]c2ccccc2c1=O)C(C)=O)CCCn1c(=O)[nH]c2ccccc2c1=O [Compound 14, (4-{acetyl-[3-(2,4-dioxo-1,4-dihydro-2H-quinazolin-3-yl)propyl]amino}butyl)-[3-(2,4-dioxo-1,4-dihydro-2H-quinazolin-3-yl)propyl]carbanic Acid ethyl ester] | 0(0/6) % | 100(6/6) % | 8.5 ± 1.8 | 2.9 ± 2.1 | 2.7 ± 1.0 | 18.9 | 26.9 |  |  | 90.1 ± 12.2
6 | Cc1ccc(S(=O)(=O)N(CCCCNCCCn2c(=O)[nH]c3ccccc3c2=O)CCCn2c(=O)[nH]c3ccccc3c2=O)cc1 [Compound 40, N-[3-(2,4-dioxo-1,4-dihydro-2H-quinazolin-3-yl)propyl]-N-{4-[3-(2,4-dioxo-1,4-dihydro-2H-quinazolin-3-yl)propylamino]butyl}-4-methylbenzenesulfonamide] | 83(5/6) % | 100(6/6) % | 11.2 ± 2.4 | 42.3 ± 8.5 | 8.3 ± 3.2 |  | 34.5 | 31 ± 8.1 (≈ 47.9 µM) |  | 
7 | O=c1[nH]c2ccccc2c(=O)n1CCCNCCNCCCn1c(=O)[nH]c2ccccc2c1=O [Compound 29, 3-(3-{2-[3-(2,4-dioxo-1,4-dihydro-2H-quinazolin-3-yl)propylamino]ethylamino}propyl)-1H-quinazoline-2,4-dione] | 17(1/6) % | 83(5/6) % | 18.2 ± 9.1 | 30.3 ± 11.1 | 3.0 ± 1.1 | 8.5 | 29.5 | 10.1 ± 17.3 (≈ 21.7 µM) |  | 
8 | CCCCCCn1c(=O)n(CCCNCCCCNCCCn2c(=O)c3ccccc3n(CCCCCC)c2=O)c(=O)c2ccccc21 [Compound 33, 1-hexyl-3-(3-{4-[3-(1-hexyl-2,4-dioxo-1,4-dihydro-2H-quinazolin-3-yl)propylamino]butylamino}propyl)-1H-quinazoline-2,4-dione] | 83(5/6) % | 100(6/6) % | 16.1 ± 2.2 | 36.6 ± 7.6 |  | 14.6 | 65.1 | 173 ± 19.7 (≈ 261 µM) | 38.5 | 
9 | O=c1[nH]c2ccccc2c(=O)n1CCCNCCCNCCCn1c(=O)[nH]c2ccccc2c1=O [Compound 24, 3-(3-{3-[3-(2,4-dioxo-1,4-dihydro-2H-quinazolin-3-yl)propylamino]propylamino}propyl)-1H-quinazoline-2,4dione] | 50(3/3) % | 100(6/6) % | 6.1 ± 1.7 | 35.7 ± 84 | 6.9 ± 3.8 | 27.4 | 30.3 | 122 ± 32.4 (≈ 256 µM) |  | 
